Test results reported in ChEMBL document CHEMBL3774305, “Design, synthesis, and biological evaluation of arylpiperazine-benzylpiperidines with dual serotonin and norepinephrine reuptake inhibitory activities” (Bioorg Med Chem, 2016).

Legend:
Format in all cases: cell-based
[1] = molecular target: T1, Sodium-dependent serotonin transporter (Homo sapiens, UniProt P31645); assay: Inhibition of [3H]-5-HT reuptake in human SERT transfected into HEK293 cells at 1 uM by liquid scintillation counting method relative to venlafaxine HCl
Target sequence in this assay (P31645 whole entry, looked up): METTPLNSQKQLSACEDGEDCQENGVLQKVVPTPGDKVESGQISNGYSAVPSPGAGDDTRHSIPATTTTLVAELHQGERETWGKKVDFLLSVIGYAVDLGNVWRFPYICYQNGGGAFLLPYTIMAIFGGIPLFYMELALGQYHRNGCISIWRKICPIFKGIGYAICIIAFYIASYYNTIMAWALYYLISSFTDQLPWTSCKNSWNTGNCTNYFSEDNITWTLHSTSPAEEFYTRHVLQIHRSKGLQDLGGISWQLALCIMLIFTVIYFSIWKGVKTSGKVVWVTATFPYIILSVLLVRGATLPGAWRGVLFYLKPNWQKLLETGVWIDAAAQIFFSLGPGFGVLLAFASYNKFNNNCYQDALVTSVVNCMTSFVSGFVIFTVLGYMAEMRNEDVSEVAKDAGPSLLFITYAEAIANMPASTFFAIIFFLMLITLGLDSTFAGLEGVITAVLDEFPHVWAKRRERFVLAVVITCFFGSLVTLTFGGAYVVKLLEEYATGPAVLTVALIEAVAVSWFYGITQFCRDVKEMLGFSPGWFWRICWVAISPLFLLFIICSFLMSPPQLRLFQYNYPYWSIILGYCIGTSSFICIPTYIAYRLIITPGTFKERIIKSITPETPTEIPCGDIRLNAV

[2] = molecular target: T2, Sodium-dependent noradrenaline transporter (Homo sapiens, UniProt P23975); assay: Inhibition of [3H]-NE reuptake in human NET transfected into HEK293 cells at 10 uM by liquid scintillation counting method relative to venlafaxine HCl
[3] = molecular target: T2, Sodium-dependent noradrenaline transporter; assay: Inhibition of [3H]-NE reuptake in human NET transfected into HEK293 cells by liquid scintillation counting method
[4] = molecular target: T1, Sodium-dependent serotonin transporter; assay: Inhibition of [3H]-5-HT reuptake in human SERT transfected into HEK293 cells by liquid scintillation counting method
Target sequence in this assay (P31645 whole entry): as the sequence (P31645 whole entry, looked up) above

[5] = molecular target: T2, Sodium-dependent noradrenaline transporter; assay: Inhibition of [3H]-NE reuptake in human NET transfected into HEK293 cells at 1 uM by liquid scintillation counting method relative to […]

T2 sequence (P23975 whole entry): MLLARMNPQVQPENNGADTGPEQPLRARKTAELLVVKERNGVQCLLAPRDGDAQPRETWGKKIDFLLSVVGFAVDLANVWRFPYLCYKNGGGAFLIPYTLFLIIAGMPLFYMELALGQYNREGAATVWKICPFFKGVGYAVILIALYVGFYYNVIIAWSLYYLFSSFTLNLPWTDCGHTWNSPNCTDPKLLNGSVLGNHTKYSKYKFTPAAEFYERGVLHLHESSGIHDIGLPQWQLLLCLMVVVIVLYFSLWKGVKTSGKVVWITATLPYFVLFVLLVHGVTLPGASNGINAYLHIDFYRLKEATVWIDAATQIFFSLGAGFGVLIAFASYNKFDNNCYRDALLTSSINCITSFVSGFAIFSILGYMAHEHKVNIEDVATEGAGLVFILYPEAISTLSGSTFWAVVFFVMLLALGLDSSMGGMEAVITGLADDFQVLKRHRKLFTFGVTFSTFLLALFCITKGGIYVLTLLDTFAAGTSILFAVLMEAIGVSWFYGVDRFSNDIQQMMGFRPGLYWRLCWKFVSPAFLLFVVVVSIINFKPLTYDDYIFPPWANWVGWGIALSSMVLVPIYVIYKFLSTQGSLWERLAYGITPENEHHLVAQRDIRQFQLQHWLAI

Row | fold change (FC) [1] | fold change (FC) [2] | IC50 [3] | IC50 [4] | fold change (FC) [5] | SMILES
1 | 2.4 | 1.36 | 890 nM | 1760 nM |  | COc1ccccc1N1CCN(CCCN2CCC(Cc3ccccc3)CC2)CC1
2 | 0.64 |  |  |  | 0.41 | Clc1cccc(N2CCN(CCN3CCC(Cc4ccccc4)CC3)CC2)c1Cl
3 | 0.32 | 1.23 |  |  |  | c1ccc(CC2CCN(CCCN3CCN(c4ccccn4)CC3)CC2)cc1
4 | 0.27 | 1.4 |  |  |  | Fc1ccc(N2CCN(CCCN3CCC(Cc4ccccc4)CC3)CC2)cc1
5 | 0.93 | 1.26 |  |  |  | Cc1cccc(C)c1N1CCN(CCN2CCC(Cc3ccccc3)CC2)CC1
6 | 0.76 | 1.34 | 1170 nM | 2610 nM |  | FC(F)(F)c1ccc(N2CCN(CCCN3CCC(Cc4ccccc4)CC3)CC2)cc1
7 | 0.33 |  |  |  | -0.05 | c1ccc(CC2CCN(CCN3CCN(c4ncccn4)CC3)CC2)cc1
8 | 1.01 | 1.31 | 2100 nM | 4920 nM |  | Brc1ccc(N2CCN(CCN3CCC(Cc4ccccc4)CC3)CC2)cc1
9 | 0.27 |  |  |  | 0.2 | COc1ccccc1N1CCN(CCN2CCC(Cc3ccccc3)CC2)CC1
10 | 0.85 | 1.29 | 2500 nM | 4320 nM |  | Clc1ccc(N2CCN(CCN3CCC(Cc4ccccc4)CC3)CC2)c(Cl)c1
11 | 0.41 | 1.16 |  |  |  | Fc1ccc(N2CCN(CCN3CCC(Cc4ccccc4)CC3)CC2)cc1
12 | 0.31 |  |  |  | 0.08 | c1ccc(CC2CCN(CCN3CCN(c4ccccn4)CC3)CC2)cc1
13 | 0.89 | 1 |  |  |  | c1ccc(CC2CCN(CCN3CCN(c4ccccc4)CC3)CC2)cc1
14 | 0.44 | 1.46 | 530 nM | 2030 nM |  | Clc1ccc(N2CCN(CCCN3CCC(Cc4ccccc4)CC3)CC2)cc1
15 | 0.56 | 1.18 |  |  |  | Clc1ccc(N2CCN(CCN3CCC(Cc4ccccc4)CC3)CC2)cc1
16 | 1.06 | 1.45 | 760 nM | 1460 nM |  | Clc1ccc(N2CCN(CCCN3CCC(Cc4ccccc4)CC3)CC2)c(Cl)c1
17 | 0.87 | 1.6 | 610 nM | 2250 nM |  | Brc1ccc(N2CCN(CCCN3CCC(Cc4ccccc4)CC3)CC2)cc1
18 | 0.41 | 1.29 |  |  |  | Clc1cccc(N2CCN(CCN3CCC(Cc4ccccc4)CC3)CC2)c1
19 | 0.79 | 1.63 | 560 nM | 2510 nM |  | Clc1cccc(N2CCN(CCCN3CCC(Cc4ccccc4)CC3)CC2)c1Cl
20 | 0.08 | 1.01 |  |  |  | c1ccc(CC2CCN(CCCN3CCN(c4ncccn4)CC3)CC2)cc1
21 | 2.83 | 1.37 | 1070 nM | 2000 nM |  | Cc1cccc(C)c1N1CCN(CCCN2CCC(Cc3ccccc3)CC2)CC1
22 | 0.69 | 1.26 |  |  |  | FC(F)(F)c1ccc(N2CCN(CCN3CCC(Cc4ccccc4)CC3)CC2)cc1

Row | SMILES | fold change (FC) [1] | fold change (FC) [2] | IC50 [3] | IC50 [4] | fold change (FC) [5]
23 | Clc1cccc(N2CCN(CCCN3CCC(Cc4ccccc4)CC3)CC2)c1 | 0.69 | 1.41 | 380 nM | 1180 nM | 
24 | c1ccc(CC2CCN(CCCN3CCN(c4ccccc4)CC3)CC2)cc1 | 0.58 | 1.51 | 600 nM | 1360 nM | 
